Laboratory results as given in patent US20240366540A1, “MITOFUSIN INHIBITORS AND USES THEREOF” (Albert Einstein College of Medicine, priority 2021, published 2024).

What was measured:
THP-1 cells = assay: Cell death with BV6 in THP-1 cells; assay type: cell-based
Protocol: (§1) Cell death assay. Cells (2×10^5 cells/well) were seeded in a 6-well plate and treated with the indicated drugs for 6 hours. Cells were dissociated using Accutase (Thermo Fisher; Cat. #00-4555-56) in order to avoid accidental exposure of phosphatidylserine on the outer plasma membrane. Cell death was evaluated with Dead Cell Apoptosis Kit with Annexin V Alexa Fluor™ 488 & Propidium Iodide (Thermo Fisher; Cat. #V13241) according to manufacturer's protocol. Data was acquired by BD LSRII flow cytometer system using BD FACSDiva software. Data was analyzed by FlowJo (BD).

BXPC3 cells = assay: Cell viability, pancreatic cancer cells; assay type: cell-based; details: BXPC3, 72 hr, Cell titer Glo
Protocol: (§2) Cell titer Glo was used to measure viability. Cells were treated with MFI8 for 72 hr (n=3, mean±SD).
(§3) Cell viability assay. Cells (5×10^3 cells/well) were seeded in a 96-well white plate and treated with serial dilutions of MASM7 or MFI8. Cell viability was assayed after 72 hrs by addition of CellTiter-Glo reagent according to the manufacturer's protocol (Promega). Luminescence was measured using a F200 PRO microplate reader (TECAN). Viability assays were performed in at least triplicate and the data normalized to vehicle-treated control wells. Dilutions of MASM7 or MFI8 were performed using a TECAN D300e Digital Dispenser from 10 mM stocks.

MEFs [1] = assay: Cytochrome C release; assay type: cell-based, mouse; details: 6 hrs treatment, cytosolic and mitochondrial fractions
Protocol: Cytochrome C release. MEFs were seeded in a 10 cm^2 dish and grown at ˜70% confluence. Following 6 hrs treatment with MFI8, cells were harvested and lysed in digitonin buffer [20 mM Hepes, pH 7.2, 10 mM KCl, 5 mM MgCl2, Im MEDTA, 1 mM EGTA, 250 mM sucrose, 0.025% Digitonin (from 5% w/v stock) and complete protease inhibitors (Roche Applied Science)] on ice for 10 min. Then, supernatants were isolated by centrifugation at 15,000×g for 10 min. Mitochondrial pellets solubilized in 1% Triton X-100/PBS for 1 hr at 4° C. Solubilized Pellets were subjected to a 14,000×rpm spin for 10 min. Samples were prepared for western blot analysis and separated by 4-12% NuPage (Life Technologies).

MEFs [2] = assay: Caspase-3/7 activation assay; assay type: cell-based, mouse
Protocol: (§4) Caspase-3/7 activation assay. Cells (5×10^3 cells/well) were seeded in a 96-well white plate and treated with MASM7, MFI8. Caspase 3/7 activation was measured after 6 hr by addition of the Caspase-Glo 3/7 reagent according to the manufacturer's protocol (Promega). Luminescence was detected by a F200 PRO microplate reader (TECAN). Caspase assays were performed in at least triplicate and the data normalized to vehicle-treated control wells. Dilutions of MASM7 or MFI8 were performed using a TECAN D300e Digital Dispenser from 10 mM stocks.

MFN1 and MFN2 = MFN1 and MFN2 gene expression and protein levels; assay type: cell-based
Protocol: Western blot. Western blots were performed from whole cell lysates (WCL) prepared in lysis buffer containing 50 mM Tris-HCl pH 7.5, 1% Triton X-100, 150 mM NaCl, 5 mM MgCl2, 1 mM EGTA and 10% glycerol in the presence of protease inhibitor cocktail (Roche).
Analysis of mitochondrial biogenesis-related genes by q-PCR. Total RNA was extracted by using RNeasy Mini Kit (Qiagen) followed by cDNA synthesis using the SuperScript IV VILO Master Mix (Thermo Scientific), both performed according to the manufacturer's protocol. q-PCR was performed using the following primers: […]
For the q-PCR reaction, Power SYBR Green master mix (Thermo Scientific) was used according to the manufacturer's instructions. Briefly, each reaction consisted of 10 ng cDNA, 5 μL Power SYBR Green master mix, 200 nM primers (forward and reverse), and RNase-free water up to 10 μL. q-PCR was performed on the ViiA 7 Real-Time PCR System (Thermo Scientific) with the following cycle parameter: 95° C. for 10 min, 40 cycles of 95° C. for 15 s, and 60° C. for 1 min. q-PCR products were analyzed by melting curves for unspecific products or primer dimer formation. Rpl39 was used as housekeeping gene and 2^−ΔΔCT method was applied to determine the relative mRNAs expression.

cells = assay: Cell viability assay (CellTiter-Glo); assay type: cell-based; details: 72 hours
Protocol: Cell viability assay. […] Cell viability was assayed after 72 hrs by addition of CellTiter-Glo reagent according to the manufacturer's protocol (Promega). Luminescence was measured using a […] microplate reader (TECAN). Viability assays were performed in at least triplicate and the data normalized to vehicle-treated control wells.

H508 cells = assay: Cell viability, colon cancer cells; assay type: cell-based; details: H508, 72 hr, Cell titer Glo
Protocol: as §2, §3

HT29 cells = assay: Cell viability, colon cancer cells; assay type: cell-based; details: HT29, 72 hr, Cell titer Glo
Protocol: as §2, §3

H2405 cells = assay: Cell viability, lung cancer cells; assay type: cell-based; details: H2405, 72 hr, Cell titer Glo
Protocol: as §2, §3

Calu-6 cells [3] = assay: Cell viability, lung cancer cells; assay type: cell-based; details: Calu-6, 72 hr, Cell titer Glo
Protocol: as §2, §3

Calu-6 cells [4] = assay: Cell death (Annexin V) in Calu-6 cells; assay type: cell-based; details: 20 μM, indicated timepoints
Protocol: Calu-6 cells were treated with MFI8 (20 μM). Cell death was monitored at the indicated timepoints using Annexin V as a readout. Data represent mean (n=3).
as §1

U2OS cells [5] = assay: Caspase-3/7 activation assay in U2OS cells; assay type: cell-based
Protocol: as §4

U2OS cells [6] = assay: DNA damage, yH2AX immunofluorescence in U2OS; assay type: cell-based
Protocol: Immunofluorescent analysis and microscopy. Cells were treated with MASM7, MFI8 and or Q-VD-OPh at ˜70% confluence for 6 h. After treatments, cells were washed with PBS and fixed with 4% PFA for 15 min. Then cells were permeabilized with 0.1% Triton X-100 in PBS for 10 min. Cells were blocked with 5% BSA in PBS-T and incubated overnight with primary antibodies as indicated; yH2AX (Sigma; 05-636, 1:100 dilution). After incubation with primary antibodies, cells were washed with PBS and incubated with the appropriate mouse secondary antibody (ThermoFisher Scientific; A-11001) in the blocking solution. After PBS washes, coverslips were dipped in water and mounted on glass slides using Vectashield containing DAPI (Vector laboratories). […] Data were analyzed with ImageJ.

## Cc1cccc(NC(C)c2cc(Cl)ccc2O)c1C (stereo not shown) [MFI8, 4-Chloro-2-(1-((2,3-dimethylphenyl)amino)ethyl)phenol]
THP-1 cells
  cell death in combination with BV6: synergistically induce cell death
BXPC3 cells
  viability: concentration responsively reduces viability
MEFs [1]
  cytochrome c release to the cytosol: cytochrome c was released to the cytosol, albeit at modest levels
MEFs [2]; 6 hr, Caspase-Glo 3/7
  caspase-3/7 activity: concentration-responsively increased caspase-3/7 activity
MEFs [2]; deletion of APAF-1
  caspase 3/7 activity: detrimental for the capacity of MFI8 to increase caspase 3/7 activity
MEFs [2]; deletion of MFN1/MFN2
  caspase-3/7 activity: impaired the capacity of MFI8 to increase caspase-3/7 activity
MFN1 and MFN2
  MFN1 and MFN2 gene expression and corresponding protein levels: neither MASM7 nor MFI8 altered
cells
  cellular viability: neither MFI8 nor MASM7 decreased cellular viability
H508 cells
  viability: concentration responsively reduces viability
HT29 cells
  viability: concentration responsively reduces viability
H2405 cells
  viability: concentration responsively reduces viability
Calu-6 cells [3]
  viability: concentration responsively reduces viability
Calu-6 cells [4]
  apoptosis / cell death (Annexin V): induces apoptosis in Calu-6 cells
U2OS cells [5]
  caspase-3/7 activation: induced caspase-3/7 activation
U2OS cells [6]; U2OS cells
  DNA damage (yH2AX): induced DNA damage in U2OS cells
U2OS cells [6]; U2OS, co-treatment with pan-caspase inhibitor Q-VD-OPh
  DNA damage (yH2AX): abolished the capacity of the latter to induce DNA damage
